Where a name gives a salt, the structure may show the parent alone.
Key:
[1] = test system: selected cell lines in hollow fibers; assay: Hollow fiber in vivo model; design: species or system Nu/Nu CD-1 male mice; details: Method 37, sub-cutaneous route
Method: At day 1, selected cell lines were cultured and the fiber filled at a cell density of about 40,000 cells/fiber. At the day of operation (day 4), three fibers are implanted sub-cutaneous into 28-35 Nu/Nu CD-1 male mice. On day 5, mice start to receive daily injection via sub-cutaneous route of control vehicle or vehicle containing the selected compound at the appropriate concentration and/or injection of cytotoxic agent via intra-peritoneal route. Upon 7 days of non-consecutive treatments, the animals are sacrificed, each fiber is removed and the metabolic viability of the remaining cells determined by MTT assay. Efficacy of the compound is define as the difference between the vehicle-treated animal and the animal treated with the compound alone or the compound given in combination of the cytotoxic agent

H460 cells = assay: Combination anti-cancer therapy in vivo with Taxotere, H460 tumors; design: species or system Female CD-1 nude mice; details: cumulative dose of 20 mg/kg, sc per day
Method: Taxotere (30 mg/kg, ip)/Saline (n=9)
Taxotere (30 mg/kg, ip)/compound 56 (2×5 mg/kg, sc) (n=10)
Female CD-1 nude mice (approximately 20-25 g) were subcutaneously injected with 1×10^6 H460 cells in the right flank. Animals were balanced into groups based on tumor size and drug therapy began when tumors were ˜30-50 mm^3. Animals that had no tumor or that were deemed outliers because of excessive tumor size at this time were removed from the study. The remaining animals received Taxotere (or equivalent volume of vehicle) at 30 mg/kg, ip 2 times, one week apart. The compound was given two times per day (at 10 mg/kg, sc, approximately 6 hrs apart), starting at the time of Taxotere, and continuing daily for the duration of the experiment. If dehydration occurred, animals received sc fluids (0.5 ml). Tumor size was measured three times per week. Health assessments were performed at the time of the compound's delivery.

GST-XIAP BIR3RING = molecular target: T1, GST-XIAP BIR3RING (Homo sapiens, UniProt P98170); assay: Fluorescence polarization-based competition assay, XIAP Bir3-RING; assay type: binding
T1 construct: made in house; host or cells: E. coli DH5-alpha
T1 sequence (P98170 246-497): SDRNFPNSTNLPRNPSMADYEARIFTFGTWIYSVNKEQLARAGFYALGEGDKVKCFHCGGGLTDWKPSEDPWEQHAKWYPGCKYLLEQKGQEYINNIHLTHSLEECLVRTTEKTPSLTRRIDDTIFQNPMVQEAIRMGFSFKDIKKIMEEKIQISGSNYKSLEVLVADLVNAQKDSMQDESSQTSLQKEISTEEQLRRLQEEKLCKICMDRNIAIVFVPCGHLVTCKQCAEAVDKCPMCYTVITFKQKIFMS
How it was run: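 Competitive fluorescence polarization with GST-XIAP BIR3-RING (aa 246-497, E. coli-expressed) and a fluorescein-labelled peptide probe in 50 mM MES pH 6.5 with BSA; protein fixed at titrated linear-signal level. Compound autofluorescence and quenching checked; IC50 from 10-point dilutions, Ki derived by Nikolovska-Coleska equation.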

GST-HIAP2 (cIAP-1) BIR 3 = molecular target: T2, GST-HIAP2 (cIAP-1) BIR 3 (Homo sapiens, UniProt Q13490); assay: Fluorescence polarization-based competition assay, cIAP-1 Bir3; assay type: binding
T2 construct: made in house; host or cells: E. coli DH5-alpha
T2 sequence (Q13490 251-363): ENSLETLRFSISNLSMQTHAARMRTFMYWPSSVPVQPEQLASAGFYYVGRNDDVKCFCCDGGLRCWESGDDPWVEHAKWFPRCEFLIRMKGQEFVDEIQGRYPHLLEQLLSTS
How it was run: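 GST-cIAP-1 BIR3 (aa 251–363, E. coli) at a titrated fixed level, combined with fluorescein-labelled peptide probe and a 10-point compound series in 50 mM MES pH 6.5 with BSA. Polarization read at ex 485/em 535 nm; IC50 fitted, and Ki derived using the Nikolovska-Coleska equation.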

GST-HIAP1(cIAP-2) BIR 3 = molecular target: T3, GST-HIAP1(cIAP-2) BIR 3 (Homo sapiens, UniProt Q13489); assay: Fluorescence polarization-based competition assay, cIAP-2 Bir3; assay type: binding
T3 construct: made in house; host or cells: E. coli DH5-alpha
T3 sequence (Q13489 236-349): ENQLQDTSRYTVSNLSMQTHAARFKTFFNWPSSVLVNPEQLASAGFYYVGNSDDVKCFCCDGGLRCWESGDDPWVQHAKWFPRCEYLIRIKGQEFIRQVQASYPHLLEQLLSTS
How it was run: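 GST-cIAP-2 BIR3 (aa 236-349, E. coli-expressed) at a pre-titrated fixed level, with fluorescein-labelled AVPF-peptide probe and 10-point compound dilutions in 50 mM MES pH 6.5 with BSA. Fluorescence polarization read at Ex 485/Em 535 nm; IC50 from curve fit, Ki derived per Nikolovska-Coleska equation.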

[2] = molecular target: T4, XIAP Bir3-RING (GST-BIR 3RING) (Homo sapiens, UniProt P98170); assay: Caspase de-repression assay using cellular extracts (apoptosome), XIAP Bir3-RING; assay type: biochemical; details: 293 cell S100 extract
T4 construct: made in house; host or cells: E. coli DH5-alpha
T4 sequence (P98170 246-497): as the sequence (P98170 246-497) above
How it was run: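 293-cell S100 extract with 0.25 uM-2 uM GST-XIAP fusion and compound (0.02 uM-40 uM), activated by 1 mM dATP, 0.1 mM ALLN and cytochrome C at 37° C. for 25 min in pH 7.0 Pipes buffer. Caspase-3 activity read as initial rate of DEVD-AMC cleavage (ex 360/em 444 nm) over 1 h, relative to fully activated and XIAP-repressed extract.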

[3] = molecular target: T5, XIAP Bir2-Bir3-RING (GST-linker BIR2 BIR3RING) (Homo sapiens, UniProt P98170); assay: Caspase de-repression assay using cellular extracts (apoptosome), XIAP Bir2-Bir3-RING; assay type: biochemical; details: 293 cell S100 extract
T5 construct: made in house; host or cells: E. coli DH5-alpha
T5 sequence (P98170 93-497): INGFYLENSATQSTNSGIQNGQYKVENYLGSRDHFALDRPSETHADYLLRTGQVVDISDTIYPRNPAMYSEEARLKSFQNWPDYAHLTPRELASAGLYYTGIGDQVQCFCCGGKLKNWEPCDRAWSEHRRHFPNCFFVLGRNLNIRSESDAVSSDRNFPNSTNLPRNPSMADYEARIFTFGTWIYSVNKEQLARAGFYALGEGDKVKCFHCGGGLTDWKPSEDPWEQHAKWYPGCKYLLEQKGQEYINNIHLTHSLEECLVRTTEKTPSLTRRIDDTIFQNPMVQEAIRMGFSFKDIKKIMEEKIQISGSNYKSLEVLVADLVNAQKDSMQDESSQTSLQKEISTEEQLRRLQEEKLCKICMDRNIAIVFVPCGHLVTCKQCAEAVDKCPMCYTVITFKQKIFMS
Method: 100 ug of 293 cell S100 extract and 0.25 uM-2 uM of GST-Xiap fusion protein (GST-BIR 3RING, GST-linker BIR2 BIR3RING) were co-incubated with serial dilutions of compound (0.02 uM-40 uM). Extracts were activated by adding 1 mM dATP, 0.1 mM ALLN, 133 ug Cytochrome C (final concentrations), and incubating at 37° C. for 25 minutes. All reactions and dilutions used S100 buffer (50 mM Pipes pH 7.0, 50 mM KCl, 0.5 mM EGTA pH 8.0, 2 mM MgCl2 supplemented with 1/1000 dilutions of 2 mg/ml Cytochalisin B, 2, mg/ml Chymotstatin, Leupeptin, Pepstatin, Antipain, 0.1M PMSF, 1M DTT). Final reaction volume was 30 ul. Caspase-3 activity was measured by overlaying 30 ul of a 0.4 mM DEVD-AMC solution. AMC cleavage was measured in a TECAN spectrophotometer at 360 nm excitation and 444 nm emission, on a kinetic cycle of 1 hour with readings taken every 5 minutes. Caspase activity was calculated as Vo of AMC fluorescence/sec. Caspase de-repression by our compounds were compared to fully activated extract and activated extract repressed by the presence of XIAP fusion protein.
(§1) Results: Compounds were also tested in the apoptosome assay and the linker-BIR2/caspase-3 inhibition assay and found to have IC50s in the following ranges: A: >10 μM; B: <10 μM; C: <1 μM, as shown in Table 7.

[4] = molecular target: T6, caspase-3 inhibited by linker BIR2-BIR3-RING of XIAP (Homo sapiens, UniProt P98170); assay: Caspase-3 linker-BIR2-BIR3-RING derepression assay; assay type: biochemical
T6 construct: made in house; host or cells: E. coli DH5-alpha (GST-XIAP); E. coli AD494 (His-caspase-3)
T6 sequence (P98170 93-497): as above
Method: In order to determine the relative activity of the selected compound against BIR2, an in vitro assay was used where caspase-3 was inhibited by linker-BIR2 or linker BIR2-BIR3-RING of XIAP. Briefly, 1.5 ul of the enzyme, 0.25 uM to 2 uM of GST-Xiap fusion protein (GST-linker BIR2, GST-linker BIR2BIR3RING) were co-incubated with serial dilutions of compound (80 uM-0.04 uM). Caspase 3 activity was measured by overlaying 25 ul of a 0.4 mM DEVD-AMC solution. Final reaction volume was 100 ul. All dilutions were performed in caspase buffer (50 mM Hepes pH 7.4, 100 mM NaCl, 10% sucrose, 1 mM EDTA, 10 mM DTT, 0.1% CHAPS (Stennicke, H. R., and Salvesen, G. S. (1997). Biochemical characteristics of caspase-3, -6, -7, and -8. J. Biol. Chem. 272, 25719-25723)).
The fluorescent AMC released from the caspase-3 hydrolysis of the substrate was measured in a TECAN spectrophotometer at 360 nm excitation and 444 nm emission, on a kinetic cycle of 30 minutes with readings taken every 2 minutes. Caspase activity was calculated as Vo of AMC fluorescence/sec. Caspase de-repression by our compounds were compared to caspase-3 alone and caspase 3 repressed by the presence of XIAP fusion protein.
as §1

MDA-MB-231 cells = assay: Survival assay (MTS) on MDA-MB-231 cells; assay type: cell-based; details: Homo sapiens, 72 hours, read-out: EC50 MDA-MB-231 breast derived cell line
Method: MDA-MD-231 (breast) and H460 (lung) cancer cells were cultured in RPMI1640 media supplemented with 10% FBS and 100 units/mL of Penicillin and Steptomycin.
(§2) Survival assays were routinely done on MDA-MB-231 and H460 cells. Cells were seeded in 96 well plates at a respective density of 5000 and 2000 cells per well and incubated at 37° C. in presence of 5% CO2 for 24 hours. Selected compounds were diluted into the media at various concentration ranging from 0.01 uM up to 100 uM. Diluted compounds were added onto the MDA-MB-231 cells. For H460 cells, the compounds were added either alone or in presence of 3 ng/ml of TRAIL. After 72 hours cellular viability was evaluated by MTS based assays. A solution of [3-(4,5-dimethylthiazol-2-yl)-5-(3-carboxymethoxyphenyl)-2-(4-sulfophenyl)-2H-tetrazolium, inner salt; MTS] was added onto cells for a period of 1 to 4 hours. Upon incubation the amount of converted MTS was evaluated using a Tecan spectrophotometer set at 570 nm.

XIAP BIR3 = assay: Pull-down assay with affinity beads, western blot; assay type: binding; details: Method 33A
Method: Prior to the pull-down assay the compound 168-affinity-agarose beads were prepared as follows:
300 ul of avidine-agarose beads prepared as 50% slurry in buffer A were incubated with 40 ul compound 168 (2.5 mM final) for 6 hrs at 4° C. with shaking. Upon incubation the beads were washed 3 times with buffer A.
On the day of the pull-down assay, cells such as MDA-MB-231 or 293A were collected and lyzed with a buffer A containing 20 mM Tris HCl, 150 mM NaCl, 10% Glycerol 1% NP-40 and Protease inhibitor cocktail obtained from Sigma with a final protein concentration between 3 to 30 ug/ul.
For the pull-down assay, 60 ul of the compound 168-beads preparation were incubated with 300 ug cells lysate and 10 ul compound 107 (0.36 mM final) or as control with 10 ul of buffer A to get a final volume of 550 ul. The mixture was then incubated at 4 C over night with shaking. The following day, the beads were washed three times with the buffer A and the final bead pellet was re-suspended in 50 ul of 2× Leamli buffer. The samples were then centrifuged and the supernatant was collected for western blot analysis directed against XIAP of the other IAP's.
Alternatively a similar protocol was performed with AVPI-Biotin and IPVA-Biotin probes.

SKOV-3 cell line = assay: Cell survival, SKOV-3 cell line; assay type: cell-based; details: Homo sapiens, SK-OV-3
Method: as §2
Various compounds, including compounds 16, 42, 44, 45, 48, 52, 53, 75, 84 and 89, were tested in the MDA-MB-231 breast derived cell line and found to have EC50 of <5 μM. […] Also, various compounds 175, 176, 177 and 178 were tested against SKOV-3 cell line, and found to have EC50 of <5 μM.

CN[C@@H](C)C(=O)N[C@H](C(=O)N1CCC[C@H]1CN(CCc1ccccc1)C(=O)[C@H](N)Cc1ccc(OC)cc1)C(C)(C)C [54 bis-HCl]
MTT signal in hollow fiber model [1]: reduction in MTT signal | Anti-tumor activity in combination with Taxotere (H460 cells): anti-tumor activity

CN[C@@H](C)C(=O)N[C@H](C(=O)N1CCC[C@H]1CNCCc1ccccc1)C(C)(C)C [Compound 16]
IC50 (GST-XIAP BIR3RING): < 10000 nM | IC50 (GST-HIAP2 (cIAP-1) BIR 3): < 1000 nM | IC50 (GST-HIAP1(cIAP-2) BIR 3): < 10000 nM | IC50 [2]: < 1000 nM | IC50 [3]: > 10000 nM | IC50 [4]: > 10000 nM | EC50 (MDA-MB-231 cells): < 5000 nM

CN[C@@H](C)C(=O)N[C@H](C(=O)N1CCC[C@H]1CN(CCc1ccccc1)C(=O)CNCc1ccccc1)C(C)(C)C [Compound 45]
IC50 (GST-XIAP BIR3RING): < 1000 nM | IC50 (GST-HIAP2 (cIAP-1) BIR 3): < 1000 nM | IC50 (GST-HIAP1(cIAP-2) BIR 3): < 1000 nM | EC50 (MDA-MB-231 cells): < 5000 nM

CN[C@@H](C)C(=O)N[C@H](C(=O)N1CCC[C@H]1CN(CCc1ccccc1)C(=O)CCCc1ccccc1)C(C)(C)C [Compound 48]
IC50 (GST-XIAP BIR3RING): < 1000 nM | IC50 (GST-HIAP2 (cIAP-1) BIR 3): < 1000 nM | IC50 (GST-HIAP1(cIAP-2) BIR 3): < 1000 nM | EC50 (MDA-MB-231 cells): < 5000 nM

CN[C@@H](C)C(=O)N[C@H](C(=O)N1CCC[C@H]1CN(CCc1ccccc1)C(=O)[C@@H](Cc1ccccc1)NC)C(C)(C)C [Compound 52]
IC50 (GST-XIAP BIR3RING): < 1000 nM | IC50 (GST-HIAP2 (cIAP-1) BIR 3): < 1000 nM | IC50 (GST-HIAP1(cIAP-2) BIR 3): < 1000 nM | EC50 (MDA-MB-231 cells): < 5000 nM

CN[C@@H](C)C(=O)N[C@H](C(=O)N1CCC[C@H]1CN(CCc1ccccc1)C(=O)[C@H](N)Cc1ccc(F)cc1)C(C)(C)C [Compound 53]
IC50 (GST-XIAP BIR3RING): < 1000 nM | IC50 (GST-HIAP2 (cIAP-1) BIR 3): < 1000 nM | IC50 (GST-HIAP1(cIAP-2) BIR 3): < 1000 nM | EC50 (MDA-MB-231 cells): < 5000 nM

CN[C@@H](C)C(=O)N[C@H](C(=O)N1CCC[C@H]1CN(CCc1ccccc1)C(=O)CCCCC1SC[C@@H]2NC(=O)N[C@H]12)C(C)(C)C (stereo partly drawn) [Compound 168]
Pull-down of XIAP BIR3 (Western-blot) (XIAP BIR3): XIAP BIR3 was pulled-down

CN[C@@H](C)C(=O)N[C@H](C(=O)N1CCC[C@H]1CN(CCc1ccccc1)C(=O)c1ccc(C(=O)N(CCc2ccccc2)C[C@@H]2CCCN2C(=O)[C@@H](NC(=O)[C@H](C)NC)C(C)(C)C)cc1)C(C)(C)C [Compound 175]
EC50 (SKOV-3 cell line): < 5000 nM

CN[C@@H](C)C(=O)N[C@H](C(=O)N1CCC[C@H]1CN(CCc1ccccc1)C(=O)CCCCCCCCC(=O)N(CCc1ccccc1)C[C@@H]1CCCN1C(=O)[C@@H](NC(=O)[C@H](C)NC)C(C)(C)C)C(C)(C)C [Compound 176]
EC50 (SKOV-3 cell line): < 5000 nM

CN[C@@H](C)C(=O)N[C@H](C(=O)N1CCC[C@H]1CN(CCc1ccccc1)C(=O)CCCC(=O)N(CCc1ccccc1)C[C@@H]1CCCN1C(=O)[C@@H](NC(=O)[C@H](C)NC)C(C)(C)C)C(C)(C)C [Compound 177]
EC50 (SKOV-3 cell line): < 5000 nM

CN[C@@H](C)C(=O)N[C@H](C(=O)N1CCC[C@H]1CN(CCc1ccccc1)C(=O)c1ccc(-c2ccc(C(=O)N(CCc3ccccc3)C[C@@H]3CCCN3C(=O)[C@@H](NC(=O)[C@H](C)NC)C(C)(C)C)cc2)cc1)C(C)(C)C [Compound 178]
EC50 (SKOV-3 cell line): < 5000 nM

Source: patent US7772177B2, “BIR domain binding compounds” (Aegera Therapeutics, Inc., priority 2005, dated 2010)
